Test results published in patent US20240197760A1, “ACTIVATORS OF INTEGRATED STRESS RESPONSE PATHWAY FOR PROTECTION AGAINST FERROPTOSIS” (Burke Neurological Institute, priority 2021, published 2024).
“Also recorded” adds a separate entry of the source.

Assays:
primary neurons = assay: High throughput RNA sequencing of primary neurons; format: cell-based, mouse
Method: Primary cortical neurons were treated with 2-DG (1 mM and 10 mM) for 6 h from three independent cultures and RNA was isolated from each sample using a NucleoSpin RNA II Kit (Clontech, Catalog number-740955-250). For each RNA sample, RNA quality was initially quantified using the RNA Integrity Number (RIN) on an Agilent Bioanalyzer (Agilent Genomics). RNA-sequencing was carried out for the RNAs with by the UCLA Neuroscience Genomics Core. In brief, cDNA was generated using Ovation® RNA-Seq System V2 (NuGEN) followed by the library preparation using Illumina's TruSeq Stranded RNA (100 ng)+RiboZero Gold. The libraries were pooled and sequenced to generate 75 bp paired end reads on HiSeqTM4000 system (Illumina). Minimum of […] reads were obtained. Reads were aligned to the mouse mm10 reference genome using the STAR (ver 2.4.0) spliced read aligner (Dobin et al., 2013). Uniquely aligned read percentage was […](SD). Various quality matrix was generated to use high quality data for the analysis. Read counts for mouse […] genes were generated by HT-seq 0.6.1 (Anders et al., 2015). Genes with at least 5 read events at least half of samples were permitted into the dataset, for a total of 15,787 genes. Raw counts were normalized by trimmed mean of M values (TMM). Differentially expressed genes (DEG) were analyzed using an EdgeR bioconductor R (Robinson et al., 2010). False discovery rate less than 0.1 is used to define differentially expressed genes. Gene Set Enrichment Analysis (GSEA) was performed with gene lists sorted by directional p-Values from differential expression analysis. Raw and processed RNAseq data are deposited to Gene Expression Omnibus (GEO #).

ICH mice = assay: Collagenase-induced intracerebral hemorrhage (ICH), tape removal test; format: in vivo, mouse; conditions: 10 mg/Kg i.p. from 24 h after collagenase, every day for 3 weeks; from day 7 onwards (days 7 and 21 vs saline)
Method: To assess the effect of 2-DG on the Bdnf gene expression, mice were injected with either saline or 2-DG (10 mg/Kg) intraperitoneally for 6 h and then mice were euthanized properly, and hippocampi were dissected out from mice brain. In order to assess functional improvement with 2-DG treatment after ischemic stroke, mice were injected with 2-DG (10 mg/Kg) intraperitoneally 24 h after induction of the stroke and then every day for four weeks. For assessing functional improvement with 2-DG treatment after hemorrhagic stroke, mice were injected with 2-DG (10 mg/Kg) intraperitoneally 24 h after induction of the stroke and then every day for three weeks. ICH was induced as described before (Karuppagounder et al., 2016). Briefly, male C57BL/6 mice (8 to 10 weeks of age; Charles River) were anesthetized with isoflurane (2 to 5%) and placed on a stereotaxic frame. During the procedure, the animal's body temperature was maintained at 37° ° C. with a homeothermic blanket. […] of collagenase (0.075 IU; Sigma) was infused into the right striatum at a flow rate of […] with a nanomite syringe pump (Harvard Apparatus) and a Hamilton syringe. […] The time from which the tape was applied to when the mouse successfully removed it was recorded for each paw. […]

[1] = system: Creba, Crebb, Bdnf exon IV; assay: Plasticity gene expression in human i.p.s. derived mature cortical neurons; format: cell-based; conditions: increasing concentrations, 6 h
Method: Human iPSC line (C1-1) was previously generated from skin biopsy samples of newborn and had been fully characterized and passaged on MEF feeder layers (Wen et al. 2014). All studies followed institutional IRB and ISCRO protocols approved by University of Pennsylvania Perelman School of Medicine. Human iPSCs were differentiated into cortical neurons following the previously established protocol (Wen et al. 2014). Briefly, hiPSCs colonies were detached from the feeder layer with 1 mg/ml collagenase (Thermo Fisher Scientific) treatment for 30 min and suspended in embryonic body (EB) medium, consisting of bFGF-free iPSC medium supplemented with 2 μM Dorsomorphin (Tocris) and 2 μM A-83 (Tocris), in non-treated polystyrene plates for 4 days with a daily medium change. […]
The gene expression of Bndf exon IV, Creba and Crebb in human i.p.s. derived neurons were also assessed using two step qPCR. […] Quantitative RT-PCR was then performed using SYBR green (Applied Biosystems) and the StepOnePlus™ Real-Time PCR System (Applied Biosystems). Quantitative levels for all genes were normalized to the housekeeping gene GAPDH and expressed relative to the relevant control samples. […]

Bdnf = Bdnf gene expression in mouse brain cortex after intraperitoneal injection; format: in vivo

## OC[C@H]1OC(O)C[C@@H](O)[C@@H]1O (stereo partly drawn) [2-DG, (4R,5S,6R)-6-(hydroxymethyl)oxane-2,4,5-triol]
Primary neurons; 1 mM and 10 mM, 6 h
  genes related to the unfolded protein response: dose dependent increase
Primary neurons; 1 mM or 10 mM, 6 h
  cellular component enrichment analysis: significant enrichment of genes related to endoplasmic reticulum
  gene set enrichment analysis: gene signature related to unfolded protein response (UPR): maximal upregulation
  plasticity gene program in RNA sequencing: upregulation of a broad plasticity gene program
Primary neurons; 2-DG treatment, primary neurons
  mitochondrial gene signature in RNA sequencing: didn't show any significant change
ICH mice
  tape removal test after hemorrhagic stroke: significant improvement; also recorded: significant difference
[1]
  gene plasticity response (Creba, Crebb, Bdnf exon IV mRNA): gene plasticity response of neurons was still the same
Bdnf; 10 mg/Kg intraperitoneal injection for 6 h
  Bdnf gene expression in mouse brain cortex: significant increase
Bdnf; intraperitoneal injection at 10 mg/Kg
  driving the adaptive plasticity program: sufficient in driving the adaptive plasticity program
